Structures can show the parent of a compound that is named as a salt. Where two headings read alike, the source gives them in different places.
Experiments:
mice = test: Mouse Hot Plate Paradigm; type: in vivo; parameters: key to MED Hot plate model (μmol/kg, i.p.): NS = no significant effect observed relative to saline controls at the doses tested; conditions: 30 minutes prior to testing, 55° C.; for minimal effective dose: ip, 0.5 h, i.p., read-out: MED Hot plate model (μmol/kg, i.p.)
[1] = biological target: T1, peripheral ganglionic receptors (Homo sapiens, UniProt P30926+P32297); test: 86Rb+ flux activation in IMR-32 human neuroblastoma cells; type: cell-based; conditions: 1 μM compound, % of maximum response to (S)-nicotine
T1 construct: Cells of the IMR-32 human neuroblastoma clonal cell line (ATCC, Rockville, Md.); host or cells: IMR-32 human neuroblastoma cells
T1 sequence (P32297 32-505): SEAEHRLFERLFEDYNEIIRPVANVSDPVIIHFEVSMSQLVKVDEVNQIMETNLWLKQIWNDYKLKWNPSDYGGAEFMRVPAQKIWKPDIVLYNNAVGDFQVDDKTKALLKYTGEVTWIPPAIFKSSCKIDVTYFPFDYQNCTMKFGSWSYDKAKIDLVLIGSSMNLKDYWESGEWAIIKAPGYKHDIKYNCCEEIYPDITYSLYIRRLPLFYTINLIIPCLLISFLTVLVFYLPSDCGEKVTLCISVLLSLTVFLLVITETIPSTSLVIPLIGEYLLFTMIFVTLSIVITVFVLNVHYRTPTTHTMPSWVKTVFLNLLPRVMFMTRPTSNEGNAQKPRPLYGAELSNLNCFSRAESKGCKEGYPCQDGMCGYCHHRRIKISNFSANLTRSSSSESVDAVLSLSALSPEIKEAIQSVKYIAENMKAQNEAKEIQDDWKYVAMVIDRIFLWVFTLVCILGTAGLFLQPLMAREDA
T1 sequence (P30926 22-498): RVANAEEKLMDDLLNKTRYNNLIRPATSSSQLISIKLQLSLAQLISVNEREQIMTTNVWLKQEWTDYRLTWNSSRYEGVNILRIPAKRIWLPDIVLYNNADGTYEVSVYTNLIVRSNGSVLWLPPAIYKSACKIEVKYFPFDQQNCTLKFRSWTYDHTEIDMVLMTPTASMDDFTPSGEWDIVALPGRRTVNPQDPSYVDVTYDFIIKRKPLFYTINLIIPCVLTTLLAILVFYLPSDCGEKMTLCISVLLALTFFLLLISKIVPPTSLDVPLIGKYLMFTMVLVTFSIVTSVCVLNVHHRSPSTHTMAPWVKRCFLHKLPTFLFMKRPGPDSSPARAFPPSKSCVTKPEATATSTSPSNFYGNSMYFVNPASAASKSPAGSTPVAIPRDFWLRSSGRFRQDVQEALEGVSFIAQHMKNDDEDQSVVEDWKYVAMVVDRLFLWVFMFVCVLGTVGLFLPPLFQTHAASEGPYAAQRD
Experimental: Protocol for the Determination of Ability of Nicotinic Acetylcholine Receptor Ligands to Activate Peripheral Ganglionic Receptors
Cells of the IMR-32 human neuroblastoma clonal cell line (ATCC, Rockville, Md.) were maintained in a log phase of growth according to established procedures. Experimental cells were seeded at a density of 500,000 cells/mL into a 24-well tissue culture dish. Plated cells were allowed to proliferate for at least 48 hours before loading with 2 μCi/mL of ^86Rb^+ (35 Ci/mmol) overnight at 37° C. The ^86Rb^+ efflux assays were performed according to previously published protocols (Lukas, R. J., J. Pharmacol. Exp. Ther., 265: 294-302, 1993) except serum-free Dulbecco's Modified Eagle's Medium was used during the ^86Rb^+ loading, rinsing, and agonist-induced efflux steps. Data reflect the activation of ^86Rb^+ flux at a concentration of 1 μM, and reflect the response as a percentage of the maximum response elicited by (S)-nicotine.

[2] = biological target: T2, neuronal nicotinic acetylcholine receptors (Rattus norvegicus, UniProt P09483+P12390); test: [3H]-cytisine binding to neuronal nicotinic acetylcholine receptors, whole rat brain membranes
T2 construct: crude synaptic membrane preparations from whole rat brain; from tissue; host or cells: whole rat brain, crude synaptic membranes
T2 sequence (P09483 31-630): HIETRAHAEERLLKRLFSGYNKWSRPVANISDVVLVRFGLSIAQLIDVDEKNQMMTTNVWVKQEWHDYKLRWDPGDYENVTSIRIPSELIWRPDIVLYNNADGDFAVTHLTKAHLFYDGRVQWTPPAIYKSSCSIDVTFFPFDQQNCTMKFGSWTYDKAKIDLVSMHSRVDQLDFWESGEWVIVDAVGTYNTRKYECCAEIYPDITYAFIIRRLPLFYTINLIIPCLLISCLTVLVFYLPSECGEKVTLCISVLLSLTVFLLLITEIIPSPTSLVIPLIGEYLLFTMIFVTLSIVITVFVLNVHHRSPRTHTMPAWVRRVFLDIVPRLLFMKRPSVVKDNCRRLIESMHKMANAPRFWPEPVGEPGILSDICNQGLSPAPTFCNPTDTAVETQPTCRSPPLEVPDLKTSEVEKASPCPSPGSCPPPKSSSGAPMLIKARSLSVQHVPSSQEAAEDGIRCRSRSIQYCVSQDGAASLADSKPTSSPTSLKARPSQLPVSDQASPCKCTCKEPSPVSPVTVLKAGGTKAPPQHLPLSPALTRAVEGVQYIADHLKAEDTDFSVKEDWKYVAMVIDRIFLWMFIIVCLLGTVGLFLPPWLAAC
T2 sequence (P12390 25-500): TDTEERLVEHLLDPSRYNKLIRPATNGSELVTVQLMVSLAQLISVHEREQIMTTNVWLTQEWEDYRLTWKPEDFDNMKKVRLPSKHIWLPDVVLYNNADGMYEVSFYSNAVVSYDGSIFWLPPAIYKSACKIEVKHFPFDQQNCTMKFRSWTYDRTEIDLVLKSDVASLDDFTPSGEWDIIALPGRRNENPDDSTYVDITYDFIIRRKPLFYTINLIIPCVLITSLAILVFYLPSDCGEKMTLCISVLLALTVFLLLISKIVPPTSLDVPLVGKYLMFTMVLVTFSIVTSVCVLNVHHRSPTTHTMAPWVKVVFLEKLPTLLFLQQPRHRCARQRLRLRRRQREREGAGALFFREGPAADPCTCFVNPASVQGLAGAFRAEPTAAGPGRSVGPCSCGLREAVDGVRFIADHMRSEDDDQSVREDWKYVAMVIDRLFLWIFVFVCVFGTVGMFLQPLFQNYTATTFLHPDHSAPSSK
Experimental: Protocol for Determination of Nicotinic Acetylcholine Channel Receptor Binding Potencies of Ligands
Binding of [^3H]-cytisine ([^3H]-CYT) to neuronal nicotinic acetylcholine receptors was accomplished using crude synaptic membrane preparations from whole rat brain (Pabreza et al., Molecular Pharmacol., 1990, 39:9). Washed membranes were stored at −80° C. prior to use. Frozen aliquots were slowly thawed and resuspended in 20 volumes of buffer (containing: 120 mM NaCl, 5 mM KCl, 2 mM MgCl2, 2 mM CaCl2 and 50 mM Tris-Cl, pH 7.4 @4° C.). After centrifuging at 20,000×g for 15 minutes, the pellets were resuspended in 30 volumes of buffer. Homogenate (containing 125-150 μg protein) was added to triplicate tubes containing concentrations of test compound and [^3H]-CYT (1.25 nM) in a final volume of 500 μL. Samples were incubated for 60 minutes at 4° C., then rapidly filtered through Whatman GF/B filters presoaked in 0.5% polyethyleneimine using 3×4 mL of ice-cold buffer. The filters are counted in 4 mL of Ecolume® (ICN). Nonspecific binding was determined in the presence of 10 μM (−)-nicotine and values were expressed as a percentage of total binding.

[3] = [3H]-cytisine 1.25 nM, whole rat brain membranes, read-out: [3H] CYT Ki

Structure (SMILES)	melting point	Ki [2, 3] [nM]	also measured
Fc1cncc(OC[C@@H]2CCN2)c1 (as salt: hydrochloride) [Example 10, 5-((2S)-Azetidinylmethyloxy)-3-fluoropyridine dihydrochloride]	165 to 167 °C		
CCc1cc(OC[C@@H]2CCN2)cnc1Cl (as salt: hydrochloride) [Example 27, 2-Chloro-3-ethyl-5-((2S)-azetidinylmethoxy)pyridine hydrochloride]	102 to 104 °C		
Clc1ncc(OC[C@H]2CCN2)cc1Br [Example 18, 5-((2R)-azetidinylmethoxy)-3-bromo-2-chloropyridine hydrochloride]		0.02	minimal effective dose (mice): 0.62 µmol/kg; IMR-32 % maximal nicotine response at 1 μM Cmpd conc'n [1]: 93%
COc1ccc(OC[C@H]2CCN2)cn1 [Example 119, 6-Methoxy-3-(2(R)-azetidinylmethoxy)pyridine]	139 to 142 °C	0.67	
Fc1ncc(OC[C@H]2CCN2)cc1Br (as salt: tosylate) [Example 125, 5-bromo-6-fluoro-3-(2-(R)-azetidinylmethoxy)pyridine]	238 to 240 °C		
Cc1ccc(OC[C@@H]2CCN2)cn1 (as salt: hydrochloride) [Example 20, 5-((2S)-Azetidinylmethyloxy)-2-methylpyridine dihydrochloride]	141 to 144 °C		
Fc1ccc(OC[C@@H]2CCN2)c(F)n1 (as salt: tosylate) [Example 116, 2.6-Difluoro-3-(2-(S)-azetidinylmethoxy)pyridine tosylate]	140 to 143 °C		
Cc1ccc(OC[C@H]2CCN2)cn1 (as salt: HCl) [Example 115, 6-Methyl-3-(2-(R)-azetidinylmethoxy)pyridine]	134 to 136 °C		
Cc1cncc(OC[C@@H]2CCN2)c1 [Example 13, 5-Methyl-3-((2S)-Azetidinylmethyloxy)pyridine dibenzoate]		0.05	MED Hot plate model (μmol/kg, i.p.) (mice): NS; IMR-32 % maximal nicotine response at 1 μM Cmpd conc'n [1]: 27%
C#Cc1cc(OC[C@@H]2CCN2)cnc1Cl (as salt: hydrochloride) [Example 30, 2-Chloro-3-ethynyl-5-((2S)-azetidinylmethoxy)pyridine hydrochloride]	90 °C (dec.)		
Fc1ncc(OCC2CCN2)cc1Cl (stereo not shown) (as salt: tosylate) [Example 33, 5-((29)-azetidinylmethoxy)-3-chloro-2-fluoropyridine tosylate]	99 °C		
Clc1ncc(OC[C@H]2CCN2)cc1Br (as salt: hydrochloride) [Example 18, 5-((2R)-azetidinylmethoxy)-3-bromo-2-chloropyridine hydrochloride]	175 °C		
Brc1cncc(OC[C@@H]2CCN2)c1 (as salt: hydrochloride) [Example 12, 5-((2S)-Azetidinylmethyloxy)-3-bromopyridine dihydrochloride]	163 to 165 °C		
Fc1cncc(OC[C@H]2CCN2)c1 [Example 11, 5-((2R)-Azetidinylmethyloxy)-3-fluoropyridine dibenzoate]		0.34	MED Hot plate model (μmol/kg, i.p.) (mice): NS; IMR-32 % maximal nicotine response at 1 μM Cmpd conc'n [1]: 31%
C=Cc1cc(OC[C@@H]2CCN2)cnc1C [Example 35, 6-Methyl-5-vinyl-3-((2S)-azetidinylmethoxy)pyridine hydrochloride]		0.22	MED Hot plate model (μmol/kg, i.p.) (mice): NS
C=Cc1cc(OC[C@@H]2CCN2)cnc1Cl [Example 26, 2-Chloro-3-vinyl-5-((2S)-azetidinylmethoxy)pyridine hydrochloride]		0.24	minimal effective dose (mice): 1.9 µmol/kg
C=Cc1cc(OC[C@@H]2CCN2)cnc1Cl (as salt: hydrochloride) [Example 26, 2-Chloro-3-vinyl-5-((2S)-azetidinylmethoxy)pyridine hydrochloride]	121 °C (dec.)		
CCCc1cc(OC[C@@H]2CCN2)cnc1Cl (as salt: hydrochloride) [Example 28, 2-Chloro-3-propyl-5-((2S)-azetidinylmethoxy)pyridine hydrochloride]	148 to 150 °C		

Structure (SMILES)	melting point	Ki [2, 3] [nM]	also measured
Clc1cc(OC[C@@H]2CCN2)cnc1Cl (as salt: hydrochloride) [Example 15, 5-((2S)-azetidinylmethoxy)-2,3-dichloropyridine hydrochloride]	181 to 182 °C		
Clc1cncc(OC[C@@H]2CCN2)c1 [Example 21, 5-((2S)-Azetidinylmethyloxy)-3-chloropyridine dihydrochloride]		0.04	MED Hot plate model (μmol/kg, i.p.) (mice): NS
Cc1cc(OC[C@@H]2CCN2)cnc1F (as salt: salt) [Example 32, 5-((2S)-azetidinylmethoxy)-3-methyl-2-fluoropyridine benzoate]	104 to 108 °C		
Cl.O=[N+]([O-])c1cncc(OC[C@@H]2CCN2)c1 [Example 132, 5-nitro-3-(2-(S)-azetidinylmethoxy)pyridine hydrochloride]	162 to 164 °C (dec.)	0.33	
Cc1ncc(OC[C@@H]2CCN2)cc1Br [Example 34, 5-Bromo-6-methyl-3-((2S)-azetidinylmethoxy)pyridine dihydrochloride]		0.02	minimal effective dose (mice): 0.62 µmol/kg
CCCc1cc(OC[C@@H]2CCN2)cnc1Cl [Example 28, 2-Chloro-3-propyl-5-((2S)-azetidinylmethoxy)pyridine hydrochloride]		0.03	MED Hot plate model (μmol/kg, i.p.) (mice): NS
Cc1cc(OC[C@@H]2CCN2)cnc1F [Example 32, 5-((2S)-azetidinylmethoxy)-3-methyl-2-fluoropyridine benzoate]		0.1	MED Hot plate model (μmol/kg, i.p.) (mice): NS
Clc1ncc(OC[C@@H]2CCN2)cc1Br (as salt: hydrochloride) [Example 17, 5-((2S)-azetidinylmethoxy)-3-bromo-2-chloropyridine hydrochloride]	168 to 169 °C		
Clc1cc(OC[C@H]2CCN2)cnc1Cl (as salt: hydrochloride) [Example 16, 5-((2R)-azetidinylmethoxy)-2,3-dichloropyridine hydrochloride]	166 to 168 °C		
CCCc1cncc(OC[C@@H]2CCN2)c1 (as salt: hydrochloride) [Example 24, 5-Propyl-3-((2S)-azetidinylmethyloxy)lpyridine hydrochloride]	79 to 80 °C		
C=Cc1cncc(OC[C@@H]2CCN2)c1 (as salt: hydrochloride) [Example 22, 5-Vinyl-3-((2S)-Azetidinylmethyloxy)lpyridine dihydrochloride]	88 to 90 °C		
C=Cc1cc(OC[C@@H]2CCN2)cnc1C (as salt: hydrochloride) [Example 35, 6-Methyl-5-vinyl-3-((2S)-azetidinylmethoxy)pyridine hydrochloride]	154 to 155 °C		
Fc1cncc(OC[C@H]2CCN2)c1 (as salt: salt) [Example 11, 5-((2R)-Azetidinylmethyloxy)-3-fluoropyridine dibenzoate]	163 to 165 °C		
CCCCc1cc(OC[C@@H]2CCN2)cnc1Cl (as salt: hydrochloride) [Example 29, 3-Butyl-2-chloro-5-((2S)-azetidinylmethoxy)pyridine hydrochloride]	88 to 90 °C		
CCc1cncc(OC[C@@H]2CCN2)c1 [Example 23, 5-Ethyl-3-((2S)-Azetidinylmethyloxy)lpyridine hydrochloride]		0.11	MED Hot plate model (μmol/kg, i.p.) (mice): NS
CCc1cc(OC[C@@H]2CCN2)cnc1F (as salt: tosylate) [Example 126, 5-ethyl-6-fluoro-3-(2-(S)-azetidinylmethoxy)pyridine]	106 to 108 °C		
CCc1cc(OC[C@@H]2CCN2)cnc1C (as salt: hydrochloride) [Example 36, 6-Ethyl-6-methyl-3-((2S)-azetidinylmethoxy)pyridine hydrochloride]	150 to 153 °C		
Cl.Cl.c1cncc(OC[C@H]2CCN2)c1 [Example 6, (R)-3-(2-Azetidinylmethyloxy)pyridine dihydrochloride]			MED Hot plate model (μmol/kg, i.p.) (mice): NS; Ki [2]: 0.04 nM

From US6403575B1, “3-Pyridyl enantiomers and their use as analgesics” (Abbott Laboratories, priority 1996, dated 2002)
